Reference: the NIST ThermoML archive (doi:10.1016/j.jct.2019.01.006)
± gives the expanded uncertainty stated by the source.

Details: for vapor or sublimation pressure: Transpiration method; for mass density: 101.33 kPa, Liquid, Vibrating tube method

Row | SMILES | vapor or sublimation pressure (419.15 K, Crystal) | vapor or sublimation pressure (421.15 K, Crystal) | vapor or sublimation pressure (423.15 K, Crystal) | vapor or sublimation pressure (425.15 K, Crystal) | vapor or sublimation pressure (427.15 K, Crystal) | vapor or sublimation pressure (429.15 K, Crystal) | vapor or sublimation pressure (431.15 K, Crystal) | vapor or sublimation pressure (433.15 K, Crystal) | vapor or sublimation pressure (435.15 K, Crystal) | vapor or sublimation pressure (437.15 K, Crystal) | vapor or sublimation pressure (439.15 K, Crystal) | vapor or sublimation pressure (441.15 K, Crystal) | vapor or sublimation pressure (443.15 K, Crystal) | Normal melting temperature (Crystal, DTA) | mass density (293.15 K) | mass density (298.15 K) | mass density (303.15 K) | mass density (308.15 K) | mass density (313.15 K)
1 | Cc1c(Cl)cccc1Nc1ncccc1C(=O)O [2-(2-methyl-3-chloroanilino)nicotinic acid] | 0.000753 ± 0.00012 kPa | 0.000867 ± 0.00013 kPa | 0.000966 ± 0.00013 kPa | 0.001118 ± 0.00013 kPa | 0.001294 ± 0.00013 kPa | 0.001475 ± 0.00013 kPa | 0.001694 ± 0.00014 kPa | 0.001933 ± 0.00014 kPa | 0.002207 ± 0.00015 kPa | 0.002483 ± 0.00016 kPa | 0.002882 ± 0.00017 kPa | 0.003179 ± 0.00018 kPa | 0.003735 ± 0.0002 kPa | 232.60 ± 0.5 °C |  |  |  |  | 
2 | CCCCCC [hexane] |  |  |  |  |  |  |  |  |  |  |  |  |  |  | 659.4 ± 4.1 kg/m3 | 654.8 ± 4.1 kg/m3 | 650.2 ± 4.1 kg/m3 | 645.4 ± 4.1 kg/m3 | 640.7 ± 4.1 kg/m3
3 | CCCCCCCCO [octan-1-ol] |  |  |  |  |  |  |  |  |  |  |  |  |  |  | 825.1 ± 4 kg/m3 | 821.7 ± 4 kg/m3 | 818.3 ± 4 kg/m3 | 814.8 ± 4 kg/m3 | 811.4 ± 4 kg/m3
